Results as given in patent publication US9868748B2, “Thiazolopyrrolidine inhibitors of ROR- γ” (Vitae Pharmaceuticals, Inc., priority 2013, dated 2018).

Molecular target: recombinant RORγ Ligand Binding Domain (LBD) protein (Homo sapiens (Human), UniProt P51449)
Assay: Radio-Ligand RORγ Binding Assay (Assay 1)
Settings: competition with 25-hydroxy [26,27-3H]-cholesterol, SPA; Table 9; read-out: RORγ Binding Ki Range*
Method: Radio-Ligand RORγ Binding Assay (Assay 1)
Compounds of the present invention were tested for ability to bind to RORγ in a cell-free competition assay with commercially available radio-ligand (RL), 25-hydroxy [26,27-^3H]— cholesterol (PerkinElmer, Cat. # NET674250UC), for a ligand binding site on a recombinant RORγ Ligand Binding Domain (LBD) protein expressed as a 6×His-Glutathione-S-Transferase (GST) fusion (“6×His” disclosed as SEQ ID NO: 2). The assay was performed in 96-well SPA plates (PerkinElmer, Cat. #1450-401) in 50 mM HEPES buffer, pH 7.4, containing 150 mM NaCl, 5 mM MgCl2, 10% (v/v) glycerol, 2 mM CHAPS, 0.5 mM β-octylglucopyranoside and 5 mM DTT. Tested compounds were dissolved in DMSO, and semi-log (3.162×) serial dilutions of the compounds were prepared in the same solvent. Two μL of the DMSO solutions were mixed with 28 μL of 8.6 nM 25-hydroxy [26,27-^3H]— cholesterol and 50 μL of 24 nM RORγ LBD. The plate was shaken at 700 rpm for 20 min and incubated for 10 min at rt, after which 40 μL of poly-Lys YSi SPA beads (PerkinElmer, Cat. # RPNQ0010) were added to achieve 50 μg of the beads per well. The plate was incubated on an orbital shaker for 20 min and then for 10 min without agitation at rt. SPA signal for tritium beta radiation was registered on PerkinElmer Microbeta plate reader. Percent inhibition values were calculated based on the high signal obtained with DMSO control and the low signal observed with 10 μM standard RORγ inverse agonist T0901317 (SigmaAldrich, Cat. # T2320). The percent inhibition vs. concentration data were fit into a four-parameter model, and […] values were calculated from the fit as the concentrations corresponding to the inflection points on the dose-response curves. Inhibitory constants (Ki) were calculated using the following equation, where [RL] is the concentration in the assay and KD is a dissociation constant of 25-hydroxy [26,27-^3H]-cholesterol: […]

Sequence of recombinant RORγ Ligand Binding Domain (LBD) protein (P51449 269-508): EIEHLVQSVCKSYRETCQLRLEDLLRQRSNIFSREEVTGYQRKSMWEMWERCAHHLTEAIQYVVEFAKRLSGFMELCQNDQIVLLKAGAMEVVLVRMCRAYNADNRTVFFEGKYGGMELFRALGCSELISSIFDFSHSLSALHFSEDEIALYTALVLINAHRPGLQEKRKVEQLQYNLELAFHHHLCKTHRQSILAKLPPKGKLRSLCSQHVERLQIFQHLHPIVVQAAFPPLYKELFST

SMILES	Ki [nM]
CCS(=O)(=O)c1ccc(CC(=O)Nc2nc3c(s2)CN(CC2CCC(F)(F)CC2)[C@H]3C(C)C)cc1	< 100
Cc1nnc(-c2ccc(CC(=O)Nc3nc4c(s3)CN(Cc3ccc(Cl)cc3)[C@H]4C(C)C)cc2)o1	100 to 1000
CCS(=O)(=O)c1ccc(CC(=O)Nc2nc3c(s2)CN(c2ncc(-c4ccc(=O)n(C)c4)cn2)[C@H]3C(C)C)cc1	> 1000
CC(C)[C@H]1c2nc(NC(=O)Cc3ccn4ccnc4c3)sc2CN1Cc1ccc(C(F)(F)F)cc1	100 to 1000
CCS(=O)(=O)c1ccc(CC(=O)Nc2nc3c(s2)CN(c2ncc(-c4ccc(=O)n(C)c4)s2)[C@H]3C(C)C)nc1	> 1000
CCS(=O)(=O)c1ccc(CC(=O)Nc2nc3c(s2)CN(CC2CCNC(=O)C2)[C@H]3C(C)C)cc1 (stereo partly shown)	100 to 1000
CCS(=O)(=O)c1ccc(CNC(=O)c2nc3c(s2)CN(Cc2ccc(-c4nnn[nH]4)cc2)[C@H]3C(C)C)cc1	100 to 1000
CCS(=O)(=O)c1ccc(CNC(=O)c2nc3c(s2)CN(Cc2ccn(C(F)F)c(=O)c2)[C@H]3C(C)C)cc1	100 to 1000
CC(C)[C@H]1c2nc(NC(=O)Cc3ccc(S(C)(=O)=O)cc3)sc2CN1Cc1ccn(C2CC2)c(=O)c1	100 to 1000
CCS(=O)(=O)c1ccc(CC(=O)Nc2nc3c(s2)CN(Cc2ccc(C(F)(F)F)cc2)[C@@]3(C)C(C)C)cc1	100 to 1000
CCS(=O)(=O)c1ccc(CC(=O)Nc2nc3c(s2)CN(C[C@H]2CC[C@H](C(=O)O)CC2)[C@H]3C(C)C)cc1	100 to 1000
CC(C)[C@H]1c2nc(NC(=O)Cc3ccc(S(C)(=O)=O)cc3)sc2CN1Cc1ccc(=O)n(C(F)F)n1	> 1000
Cc1ccc(CN2Cc3sc(NC(=O)Cc4ccc(S(C)(=O)=O)cc4)nc3[C@@H]2C(C)C)nn1	100 to 1000
CCS(=O)(=O)c1ccc(CC(=O)Nc2nc3c(s2)CN(c2ncc(CO)c(C(F)(F)F)n2)[C@H]3C(C)C)cc1	100 to 1000
CCS(=O)(=O)c1ccc(CC(=O)Nc2nc3c(s2)CN(Cc2cc[n+]([O-])cc2)[C@H]3C(C)C)cc1	100 to 1000
COc1cc(CN2Cc3sc(NC(=O)Cc4ccc(C#N)cc4)nc3[C@@H]2C(C)C)ccc1C#N	< 100
CC(C)[C@H]1c2nc(NC(=O)Cc3ccc(S(C)(=O)=O)cc3F)sc2CN1Cc1cnc(C(F)(F)F)nc1	100 to 1000
CCS(=O)(=O)c1cnc(CC(=O)Nc2nc3c(s2)CN(Cc2ccc(C(F)(F)F)cc2)[C@@H]3C(C)C)nc1	> 1000
CCS(=O)(=O)c1cnc(CC(=O)Nc2nc3c(s2)CN(Cc2ccc(C#N)cc2)[C@@H]3C(C)C)nc1	> 1000
CCS(=O)(=O)c1ccc(CC(=O)Nc2nc3c(s2)CN(Cc2cnc(N)nc2)[C@H]3C(C)C)cc1	100 to 1000
CC[C@H]1c2nc(NC(=O)Cc3ccc(C(=O)OC)cc3)sc2CN1Cc1ccc(Cl)cc1	100 to 1000
CC(C)[C@H]1c2nc(C(=O)NCc3ccc(S(C)(=O)=O)cc3)sc2CN1Cc1ccn(C)c(=O)c1	> 1000
CC(C)[C@H]1c2nc(NC(=O)CC3CCS(=O)(=O)CC3)sc2CN1Cc1ccc(Cl)cc1	100 to 1000

SMILES	Ki [nM]
CCS(=O)(=O)c1ccc(CNC(=O)c2nc3c(s2)CN(CC2CNCCO2)[C@H]3C(C)C)cc1 (stereo partly shown)	> 1000
CC(C)[C@H]1c2nc(C(=O)NCc3ccc(S(C)(=O)=O)cc3)sc2CN1Cc1ccc2nn[nH]c2c1	100 to 1000
Cc1ncc(CN2Cc3sc(NC(=O)Cc4ccc(S(C)(=O)=O)cc4)nc3[C@@H]2C(C)C)cn1	100 to 1000
CC(C)[C@H]1c2nc(C(=O)NCc3ccc(S(C)(=O)=O)cc3)sc2CN1Cc1ncc(Cl)cn1	100 to 1000
CCOC(=O)c1cnc(N2Cc3sc(NC(=O)Cc4ccc(S(=O)(=O)CC)cc4)nc3C2(C)C)nc1C(F)(F)F	100 to 1000
CC(C)[C@H]1c2nc(C(=O)NCc3ccc(S(C)(=O)=O)cc3)sc2CN1Cc1cnc(C(F)(F)F)nc1	100 to 1000
CCS(=O)(=O)c1ccc(CC(=O)Nc2nc3c(s2)CN(Cc2ccc(S(C)(=O)=O)cc2)C3(C)C)cc1	> 1000
CC1(C)c2nc(NC(=O)Cc3ccc(S(C)(=O)=O)cc3)sc2CN1c1ncc(C(F)(F)F)cn1	100 to 1000
CCS(=O)(=O)c1ccc(CNC(=O)c2nc3c(s2)CN(c2ncc(CO)c(C(F)(F)F)n2)[C@H]3C(C)C)cc1	> 1000
CCS(=O)(=O)c1ccc(CNC(=O)c2nc3c(s2)CN(c2ncc(C(F)(F)F)cn2)[C@H]3C(C)C)cc1	> 1000
CCOC(=O)c1cnc(N2Cc3sc(C(=O)NCc4ccc(S(=O)(=O)CC)cc4)nc3[C@@H]2C(C)C)nc1C(F)(F)F	> 1000
CCS(=O)(=O)c1ccc(CNC(=O)c2nc3c(s2)CN(c2nccc(C(F)(F)F)n2)[C@H]3C(C)C)cc1	100 to 1000
CCS(=O)(=O)c1ccc(CC(=O)Nc2nc3c(s2)CN(c2ncc(C(F)(F)F)cn2)C3(C)C)cc1	100 to 1000
CC(C)[C@H]1c2nc(NC(=O)Cc3ccc(S(C)(=O)=O)cc3)sc2CN1Cc1ncc(Cl)cn1	100 to 1000
CC(C)[C@H]1c2nc(C(=O)NCc3ccc(S(C)(=O)=O)cc3)sc2CN1Cc1ccc(C#N)cn1	100 to 1000
CC(C)[C@H]1c2nc(NC(=O)Cc3ccc(S(C)(=O)=O)cc3)sc2CN1Cc1ncc(Cl)cc1F	100 to 1000
CCOC(=O)c1cnc(N2Cc3sc(NC(=O)Cc4ccc(S(C)(=O)=O)cc4)nc3[C@@H]2C(C)C)nc1C(F)(F)F	100 to 1000
CC(C)[C@H]1c2nc(NC(=O)Cc3ccc(S(C)(=O)=O)cc3)sc2CN1c1nc(Cl)ncc1C#N	100 to 1000
CC(C)[C@H]1c2nc(NC(=O)Cc3ccc(S(C)(=O)=O)cc3)sc2CN1c1ncc(C#N)c(Cl)n1	100 to 1000
COC(=O)c1cnc(N2Cc3sc(NC(=O)Cc4ccc(S(C)(=O)=O)cc4)nc3[C@@H]2C(C)C)nc1	> 1000
CC(C)[C@H]1c2nc(NC(=O)Cc3ccc(F)cc3F)sc2CN1Cc1ccc(Cl)cc1	100 to 1000
CC[C@@H]1c2nc(NC(=O)Cc3ccc(S(C)(=O)=O)cc3)sc2CN1Cc1ccc(OC(F)(F)F)nc1	100 to 1000
CC[C@@H]1c2nc(NC(=O)Cc3ccc(S(=O)(=O)CC)cc3)sc2CN1Cc1ccc(F)cn1	100 to 1000

SMILES	Ki [nM]
CC[C@@H]1c2nc(NC(=O)Cc3ccc(S(C)(=O)=O)cc3)sc2CN1Cc1ccc(OC(F)(F)F)cc1F	100 to 1000
CC(C)[C@@H]1c2nc(NC(=O)Cc3ccc(S(C)(=O)=O)cc3)sc2CN1Cc1ccc(Br)cc1	100 to 1000
CCS(=O)(=O)c1ccc(CC(=O)Nc2nc3c(s2)CN([C@@H](C)Cc2ccccc2)[C@@H]3C(C)C)cc1	100 to 1000
CCS(=O)(=O)c1ccc(CC(=O)Nc2nc3c(s2)CN(Cc2nccc(C(F)(F)F)n2)[C@@H]3C(C)C)cc1	100 to 1000
CCS(=O)(=O)c1ccc(CC(=O)Nc2nc3c(s2)CN(Cc2ccc(C#N)cn2)[C@@H]3C(C)C)cc1	100 to 1000
COC(=O)c1coc(CN2Cc3sc(NC(=O)Cc4ccc(S(C)(=O)=O)cc4)nc3[C@H]2C(C)C)n1	> 1000
CC(C)[C@@H]1c2nc(NC(=O)Cc3ccc(S(C)(=O)=O)cc3)sc2CN1C(C)c1ccc(C#N)cc1 (stereo partly shown)	100 to 1000
Cc1ccc(CN2Cc3sc(NC(=O)Cc4ccc(S(C)(=O)=O)cc4)nc3[C@H]2C(C)C)cc1	100 to 1000
CCS(=O)(=O)c1ccc(CC(=O)Nc2nc3c(s2)CN(C(=O)Cc2ccccc2)[C@@H]3C(C)C)cc1	100 to 1000
CC(C)[C@@H]1c2nc(NC(=O)Cc3ccc(S(C)(=O)=O)cc3)sc2CN1Cc1ccc(C#N)cc1	100 to 1000
CCS(=O)(=O)c1ccc(CC(=O)Nc2nc3c(s2)CN(Cc2ccc(C(F)(F)F)nc2)[C@@H]3C(C)C)cc1	100 to 1000
CCS(=O)(=O)c1ccc(CC(=O)Nc2nc3c(s2)CN(CC2CCOCC2)[C@@H]3C(C)C)cc1	100 to 1000
CCS(=O)(=O)c1ccc(CC(=O)Nc2nc3c(s2)CN(Cc2ccc(S(C)(=O)=O)cc2)[C@@H]3C(C)C)cc1	100 to 1000
Cc1cc(C(F)(F)F)nc(N2Cc3sc(-c4ccc(C(F)(F)F)nc4)nc3[C@H]2C(C)C)n1	> 1000
Cc1cc(C(F)(F)F)nc(N2Cc3sc(Cc4ccc(-c5nn[nH]n5)cc4C)nc3[C@H]2C(C)C)n1	100 to 1000
Cc1cc(C(F)(F)F)nc(N2Cc3sc(Cc4ccc(C#N)cc4C)nc3[C@H]2C(C)C)n1	> 1000
CCS(=O)(=O)c1ccc(CC(=O)Nc2nc3c(s2)CN(C[C@H]2C[C@H](C(N)=O)C2)[C@H]3C(C)C)cc1 (relative stereo)	100 to 1000
CCS(=O)(=O)c1ccc(CC(=O)Nc2nc3c(s2)CN(C[C@@H]2CC[C@@H](C(F)(F)F)NC2)[C@H]3C(C)C)nc1 (single isomer, unassigned)	100 to 1000
CCS(=O)(=O)c1ccc(CC(=O)Nc2nc3c(s2)CN([C@@H](C)Cc2ccc(F)cc2)[C@@H]3C(C)C)cc1 (single isomer, unassigned)	100 to 1000
CC(C)[C@@H]1c2nc(NC(=O)Cc3ccc(S(C)(=O)=O)cc3)sc2CN1[C@@H](C)c1ccc(C(F)(F)F)cc1 (single isomer, unassigned)	100 to 1000
CC[C@@H]1c2nc(NC(=O)Cc3ccc(S(C)(=O)=O)cc3)sc2CN1[C@@H](C)c1ccc(OC(F)(F)F)cc1 (single isomer, unassigned)	100 to 1000
